One assay relates to ECHCG (barnyardgrass). Briefly: Greenhouse post-emergence weed control, damage vs untreated (ECHCG). The format is in vivo, Echinochloa crus-galli. How it is done: (§1) A greenhouse study was conducted to evaluate the effect of the alkylether sulfates of formula (I) and other adjuvants on the weed control efficacy of glufosinate. Seedlings of grass plants (AVEFA, ECHCG, DIGSA and SETVI) and broadleaf weeds (KCHSC, CHEAL, AMAPA, AMATA and ABUTH) were grown to a height of 3 to 20 cm, depending on the plant habit in 10×10×10 cm pots filled with sandy planting soil (Limburgerhof soil). The weeds were treated with postemergence applications of glufosinate ammonium at the respective application rates given in the following tables, either alone or combined with various amounts of the respective adjuvants.
(§2) For this, the herbicide formulation and the respective adjuvant were introduced into tap water to obtain the spray liquor. […] The spray liquor was then applied to the plant a spray volume of 200 l/ha using a sprayer (XR Teejet 110015).
(§3) The test period extended over 21 days. During this time, the plants were tended, and their response to the treatments with active compound was evaluated.
(§4) The evaluation for the damage caused by the chemical compositions was carried out using a scale from 0 to 100%, compared to the untreated control plants. Here, 0 means no damage and 100 means complete destruction of the plants.
(§5) The plants used in the greenhouse experiments belonged to the following species:
(§6) The results are summarized in the following tables 1 to 15 that show the applied doses of the individual actives as gram of active ingredient per hectare (g ai/ha), the herbicidal activity of the individual […]

Assay [1] has as its system Øgras (average value of AVEFA, ECHCG, DIGSA and SETVI). Description: Greenhouse post-emergence weed control, average over grasses (Øgras). The format is in vivo. How it is done:
as §1, §2, §3, §4, §5, §6

Where [2] appears, read: 5 g ai/ha L-glufosinate (so in the source), no adjuvant.
Where [3] appears, read: 37.5 g ai/ha L-glufosinate, adjuvant g ai/ha: none (CE1-B), 56 (IE2-A), 62.125 (IE2-B), 51.625 (CE2-F).
[4] abbreviates: 150 g ai/ha L-glufosinate, adjuvant g ai/ha: none (CE1-B), 223 (IE2-A), 248.5 (IE2-B), 206.5 (CE2-F).
Setting [5] is: 300 g ai/ha L-glufosinate, adjuvant g ai/ha: none (CE1-B), 446 (IE2-A), 497 (IE2-B), 413 (CE2-F).

As to `CP(=O)(O)CC[C@H](N)C(=O)O.N` [CE1-B, ammonium (2S)-2-amino-4-(methylphosphinato)butyric acid], the “% activity” value stood at 0% in the assay with ECHCG (barnyardgrass) (setting [2]), 0% with ECHCG (barnyardgrass) (setting [3]), 20% in the assay with ECHCG (barnyardgrass) (setting [4]) and 60% in the assay with ECHCG (barnyardgrass) (setting [5]). Also, the “% activity ECHCG” value is given as 0% with ECHCG (barnyardgrass) (g ai/ha: 42.375 solo (CE1-C), 42.375 + 66.97 combined (IE3-A/B/C, CE2-J)); 3% with ECHCG (barnyardgrass) (g ai/ha: 84.75 solo (CE1-C), 84.75 + 133.94 combined (IE3-A/B/C, CE2-J)); 3% with ECHCG (barnyardgrass) (g ai/ha: 169.5 solo (CE1-C), 169.5 + 267.89 combined (IE3-A/B/C, CE2-J)); 20% with ECHCG (barnyardgrass) (g ai/ha: 339 solo (CE1-C), 339 + 535.77 combined (IE3-A/B/C, CE2-J)). For the same compound, the “% activity (Øgras)” value in assay [1] (setting [2]) is given as 26%; in assay [1] (setting [3]) it was 21%; in assay [1] (setting [4]) it was 40%; in assay [1] (setting [5]), 54%.

Values taken from US20260344661A1, “USE OF AN ALKYLETHER SULFATE FOR IMPROVING THE EFFICACY OF HERBICIDES” (BASF SE, priority 2022, published 2026).
